Experimental data taken from publication PMC4429288 (The Journal of antibiotics, 2014).
Structures can show the parent of a compound that is named as a salt.

Experiments:
[1] = system: S. aureus (MRSA, VISA and VRSA strains); test: MIC, broth microdilution; assay type: cell-based, Staphylococcus aureus
[2] = system: S. epidermidis ATCC 35984; test: MIC, broth microdilution; assay type: cell-based; settings: Staphylococcus epidermidis, ATCC35984
[3] = system: S. aureus (MRSA, VISA and VRSA strains); test: MBC, plating from MIC wells; assay type: cell-based, Staphylococcus aureus
[4] = system: methicillin-resistant Staphylococcus aureus (MRSA); test: Single-step resistance selection; assay type: cell-based; settings: 4 × MIC; for Single-step frequency of resistance: resistant colonies per inoculum
MRSA NRS123 (USA400) = test: Time-kill analysis
[5] = Staphylococcus aureus, ATCC43300|MRSA|VISA|VRSA
[6] = Staphylococcus aureus, MRSA|NRS107|VISA|VRSA
[7] = Staphylococcus aureus, MRSA|NRS119|VISA|VRSA
[8] = Staphylococcus aureus, MRSA|NRS123|USA400|VISA|VRSA
[9] = Staphylococcus aureus, MRSA|NRS194|VISA|VRSA
[10] = Staphylococcus aureus, MRSA|NRS384|USA300|VISA|VRSA
[11] = Staphylococcus aureus, MRSA|NRS385|USA500|VISA|VRSA

For `CN[C@H](CC(C)C)C(=O)N[C@H]1C(=O)N[C@@H](CC(N)=O)C(=O)N[C@H]2C(=O)N[C@H]3C(=O)N[C@H](C(=O)N[C@H](C(=O)O)c4cc(O)cc(O)c4-c4cc3ccc4O)[C@H](O)c3ccc(c(Cl)c3)Oc3cc2cc(c3O[C@@H]2O[C@H](CO)[C@@H](O)[C@H](O)[C@H]2O[C@H]2C[C@](C)(N)[C@H](O)[C@H](C)O2)Oc2ccc(cc2Cl)[C@H]1O` [Vancomycin, vancomycin hydrochloride], the MIC [1, 5] was 0.74 µg/mL, the MIC [1, 6] was 0.74 µg/mL and the MIC [1, 7] was 0.74 µg/mL. The MIC [1, 8] was 0.37 µg/mL, the MIC [1, 9] was 0.74 µg/mL and the MIC [1, 10] was 0.74 µg/mL. For the same compound, the MIC [1, 11] was 0.74 µg/mL, the MIC [2] was 0.74 µg/mL and the MBC [3, 5] was 0.74 µg/mL. For the same compound, the MBC ([3]; Staphylococcus aureus, MRSA|NRS1|VISA|VRSA) was 2.97 µg/mL, the MBC ([3]; Staphylococcus aureus, MRSA|NRS19|VISA|VRSA) was 2.97 µg/mL and the MBC ([3]; Staphylococcus aureus, MRSA|NRS37|VISA|VRSA) was 2.97 µg/mL. For the same compound, the MBC [3, 6] was 1.49 µg/mL, the MBC [3, 7] was 1.49 µg/mL and the MBC [3, 8] was 0.37 µg/mL. The MBC [3, 9] was 0.74 µg/mL, the MBC [3, 10] was 0.74 µg/mL and the MBC [3, 11] was 0.74 µg/mL. The “Single-step frequency of resistance” value ([4]; MRSA NRS119) was >8.47×10^−10, the “Single-step frequency of resistance” value ([4]; MRSA NRS123 (USA400)) was >2.33×10^−10 and the “Single-step frequency of resistance” value ([4]; MRSA NRS384 (USA300)) was 3.03×10^−10. For the same compound, the “Single-step frequency of resistance” value ([4]; MRSA NRS385 (USA500)) was >3.31×10^−10, the “Time to 3-log10 reduction in CFUml^−1” value (MRSA NRS123 (USA400); 2 × MIC) was at most 24 h and the “Time to complete elimination of MRSA” value (MRSA NRS123 (USA400); 2 × MIC) was “not able to eliminate all bacteria completely”. The “Time to complete elimination of MRSA” value (MRSA NRS123 (USA400); 4 × MIC) was 24 h and the “Time to complete elimination of MRSA” value (MRSA NRS123 (USA400); 8 × MIC) was 24 h.
teicoplanin gave an MIC ([1]; MRSA ATCC 43300) of 0.94 µg/mL, an MIC ([1]; MRSA NRS107) of 0.94 µg/mL and an MIC ([1]; MRSA NRS119) of 0.94 µg/mL. It also gave an MIC ([1]; MRSA NRS123 (USA400)) of 0.94 µg/mL, an MIC ([1]; MRSA NRS194) of 0.94 µg/mL and an MIC ([1]; MRSA NRS384 (USA300)) of 0.94 µg/mL. The MIC ([1]; MRSA NRS385 (USA500)) was 0.94 µg/mL, the MIC ([1]; VISA NRS1) was 3.76 µg/mL and the MIC ([1]; VISA NRS19) was 0.94 µg/mL. The MIC ([1]; VISA NRS37) was 7.52 µg/mL, the MIC range ([1]; VISA strains) was 0.94 to 7.52 µg/mL and the MIC ([1]; VRSA VRS1) was 120.30 µg/mL. For the same compound, the MIC ([1]; VRSA VRS4) was 60.15 µg/mL, the MIC ([1]; VRSA VRS5) was 60.15 µg/mL and the MIC range ([1]; all three VRSA strains) was 60.51 to 120.30 µg/mL. The MBC ([3]; MRSA ATCC 43300) was 3.76 µg/mL, the MBC ([3]; MRSA NRS107) was 0.94 µg/mL and the MBC ([3]; MRSA NRS119) was 0.94 µg/mL. For the same compound, the MBC ([3]; MRSA NRS123 (USA400)) was 15.04 µg/mL, the MBC ([3]; MRSA NRS194) was 15.04 µg/mL and the MBC ([3]; MRSA NRS384 (USA300)) was 15.04 µg/mL. It also gave an MBC ([3]; MRSA NRS385 (USA500)) of 3.76 µg/mL, an MBC ([3]; VISA NRS1) of 7.52 µg/mL and an MBC ([3]; VISA NRS19) of 0.94 µg/mL. For the same compound, the MBC ([3]; VISA NRS37) was 7.52 µg/mL, the MBC ([3]; VRSA VRS1) was 240.60 µg/mL and the MBC ([3]; VRSA VRS4) was 60.15 µg/mL. For the same compound, the MBC ([3]; VRSA VRS5) was 60.15 µg/mL, the “MBC relative to MIC” value ([3]; three strains of MRSA (NRS194, USA300, and USA400)) was 16 fold and the “MBC relative to MIC” value ([3]; two additional MRSA strains) was “four”. The “Single-step frequency of resistance” value ([4]; MRSA NRS107) was 1.91×10^−8, the “Single-step frequency of resistance” value ([4]; MRSA NRS119) was 2.73×10^−7 and the “Single-step frequency of resistance” value ([4]; MRSA NRS123 (USA400)) was 2.21×10^−9. The “Single-step frequency of resistance” value ([4]; MRSA NRS384 (USA300)) was 3.03×10^−9, the “Single-step frequency of resistance” value ([4]; MRSA NRS385 (USA500)) was 1.79×10^−8 and the Mutation frequency range ([4]; five MRSA strains) was 2.73×10^−7 to 3.03×10^−9. For the same compound, the “Time to complete elimination of MRSA” value (MRSA NRS123 (USA400); 2 × MIC) was 24 h, the “Time to complete elimination of MRSA” value (MRSA NRS123 (USA400); 4 × MIC) was 24 h and the “Time to complete elimination of MRSA” value (MRSA NRS123 (USA400); 8 × MIC) was 24 h.
